{"source": "patent US20170233637A1", "about": "“METHODS FOR INHIBITING METAL CORROSION” (OHIO UNIVERSITY, priority 2014, published 2017)", "key": {"[1]": {"experiment": "VCI screening in bulk solution (BLC rate by linear polarization resistance, OCP, solution pH)", "settings": "for inhibition properties in the tested water phase (VCI screening in bulk solution): 400 ppmv, 1 wt % NaCl", "experimental": "Other measurements of the effectiveness of the VCI composition to inhibit corrosion may be derived from Open Circuit Potential (OCP) and Linear Polarization Resistance (Rp) experiments. In the volatile thiol screening test, a potentiostat was used to measure the Rp and the OCP of the ferrous metal sample. Corrosion rate in the water phase (BLC rate) is proportional to the corrosion current density (icorr), which was then calculated by using a B constant value of 0.026 V/decade (icorr=B/Rp/S in which S is surface area of the sample).\nA three electrode system was used in which an X65 rotating cylinder electrode (1000 RPM) was the working electrode 12, a Pt wire was used as counter electrode 14, and Ag/AgCl as the reference electrode 16. A pH probe 18 was used to measure the pH of the solution before and after adding the VCI candidates. The experiments were performed at 25° C. and 1 bar total pressure (pCO2=0.96 bar).\nIn the VCI screening test, a potentiostat was used to measure the polarization resistance (Rp) of the X65 sample. Corrosion rate in the water phase (BLC rate) is proportional to the corrosion current density (icorr) which was then calculated by using a B constant value of 0.026 V/decade (icorr=B/Rp/S in which S is surface area of the sample).\nA baseline test was performed in the absence of the VCI candidate compound. […] Dibutyl sulfide was used to compare the sulfide functional group versus the thiol functional group.\nFor the VCI screening tests, a 1 wt % NaCl solution was prepared and purged with CO2 for 2 hours at 25° C. before injecting the VCI candidate. […] After that the Open Circuit Potential (OCP) and Linear Polarization Resistance (LPR) were measured every 10 minutes during an exposure time of 3-4 hours. The pH of the solution was measured before and after adding the VCI candidate. Electrolyte resistance (ER) was measured by Electrochemical Impedance Spectroscopy (EIS)."}, "[2]": {"experiment": "Efficacy test of VCI candidates for top of the line corrosion (weight loss, ASTM G1; surface analysis)", "settings": "for TLC rate / TLC rate (weight loss): uninhibited 1.06 mm/y; for surface of the X65 TLC specimen: 100 and 400 ppmv in the bulk, after 2 days; for TLC rate (weight loss): 2 days", "experimental": "The temperatures of the bottom solution and gas phases were controlled by a heater, while temperature of the specimen at the top was controlled by cooling water. Through coil 20, a condenser 22 was used to prevent water and VCI vapor loss.\nIn the VCI efficacy test, corrosion rate of the specimen at the top (TLC rate) was measured by weight loss following the ASTM G1 standard. Sample surface was characterized by Scanning Electron Microscopy (SEM)/Energy Dispersive X-ray Spectroscopy (EDS).\n1-hexanethiol, 1-decanethiol and 1-dodecanethiol were chosen based on the results in the VCI screening test, data from which will be shown below. In addition, the effect of acetic acid and MEG on the inhibition performance of the best VCI candidate was also taken into account.\nFor the efficacy tests of VCI candidates for TLC, 1 wt % NaCl was also prepared and purged with CO2 for 2 hours. In order to have a gas temperature of 65° C., the bottom solution was heated to 77° C. After that the selected concentration of the VCI candidates (Table 3) was added into the bulk solution. A weight loss specimen 24, after being ground (with up to 600 grit abrasive paper), was flush-mounted at the top of the experimental setup, controlling its temperature at 32° C. using cooling water. The weight loss sample and ER probe were added 0.1 hour after addition of the VCI candidate. The weight loss samples were withdrawn after 48 hours for surface analysis and weight loss measurement.\nFIG. 15 indicates the conditions for the TLC tests. The temperatures at the bottom, in the vapor phase, and at the top were 77° C., 65° C., and 32° C. respectively. The experiment was performed in the CO2 environment (total pressure=1 atm)."}, "[3]": {"settings": "cited from earlier work; for Solubility: at 77° C.; for Water solubility: temperature not given"}, "[4]": {"settings": "cited from earlier work; for Pvapor (vapor pressure): at 25° C.; for Calculated vapor pressure: at 200° C., Yaws and Yang 1989"}, "[5]": {"settings": "carbon dioxide saturated environment; cited from earlier work"}, "[6]": {"experiment": "Solubility in water of VCI candidates", "settings": "at 25° C.; converted to ppm by volume using density value"}, "[7]": {"settings": "400 ppmv VCI added before electrode insertion, CO2 saturated 1 wt % NaCl, 25° C., baseline 2.3 mm/y"}, "[8]": {"settings": "at 25° C., data from www.lookchem.com"}}, "note": "“And” between values parts separate entries of the source, which are not always exact repeats. Equal values may be shown once. Read-outs that look alike come from different tables or passages of the source."}
{"compound": "CCCCCCCCCCS", "note": "[1-decanethiol]", "values": [{"measurement": "BLC rate", "setting": "[1]; [7]", "value": 0.01, "unit": "mm/y"}, {"measurement": "BLC rate", "setting": "[1]; 400 ppmv injected after electrode insertion (X65 pre-corroded almost one hour), decreased from 2.4 mm/y", "value": 0.05, "unit": "mm/y"}, {"measurement": "inhibition properties in the tested water phase (VCI screening in bulk solution)", "setting": "[1]", "value": "had inhibition properties"}, {"measurement": "TLC rate", "setting": "[2]; 1 ppmv at the bottom", "value": 0.21, "unit": "mm/y"}, {"measurement": "TLC rate", "setting": "[2]; 10 ppmv at the bottom", "value": 0.12, "unit": "mm/y"}, {"measurement": "surface of the X65 TLC specimen", "setting": "[2]", "value": "fully protected"}, {"measurement": "protection of the X65 specimen in the presence of acetic acid", "setting": "[2]; 100 ppmv VCI with 500 ppmv acetic acid", "value": "effective in fully protecting"}, {"measurement": "TLC rate (weight loss)", "setting": "[2]; 400 ppmV at the bottom", "value": 0.02, "unit": "mm/y"}, {"measurement": "weight loss for the calculation of corrosion rate", "setting": "[2]; above the solubility limit (100 ppmv and 400 ppmv)", "value": "no measurable weight loss"}, {"measurement": "average vapor phase corrosion rate", "setting": "[2]; with or without 50 wt. % MEG, 400 ppmV per test matrix", "value": "around 0.04 mm/y"}, {"measurement": "Solubility limit", "setting": "[3]; [8]", "value": 2.14, "unit": "mg/L"}, {"measurement": "Solubility limit", "setting": "[3]; at 32° C.", "value": 3.63, "unit": "ppmv"}, {"measurement": "Solubility", "setting": "[3]", "value": 24.8, "unit": "ppmV"}, {"measurement": "Water solubility", "setting": "[3]", "value": "~2.14", "unit": "µg/mL"}, {"measurement": "Pvapor (vapor pressure)", "setting": "[4]", "value": 0.06, "unit": "mmHg"}]}
{"compound": "CCCCCCCCCCCCCCCCCS", "note": "[C17]", "values": [{"measurement": "Calculated vapor pressure", "setting": "[4]", "value": 10.7, "unit": "mmHg"}]}
{"compound": "O=C(O)CS", "note": "[Thioglycolic acid]", "values": [{"measurement": "effectiveness at inhibiting corrosion", "setting": "[5]", "value": "only partially effective"}]}
{"compound": "CCCCCCCCCCCCCCCCS", "note": "[C16]", "values": [{"measurement": "Calculated vapor pressure", "setting": "[4]", "value": 16.7, "unit": "mmHg"}]}
{"compound": "CCCCCCCCCCCCCCCCCCS", "note": "[C18]", "values": [{"measurement": "Calculated vapor pressure", "setting": "[4]", "value": 6.79, "unit": "mmHg"}]}
{"compound": "O=C(O)CCCCCCCCCCS", "note": "[11-MUA, 11-mercaptoundecanoic acid]", "values": [{"measurement": "TLC rate (weight loss)", "setting": "[2]; 100 ppmV at the bottom", "value": 0.02, "unit": "mm/y"}, {"measurement": "Solubility", "setting": "[3]", "value": 89, "unit": "ppmV"}, {"measurement": "Water solubility", "setting": "[3]", "value": "about 13.8 mg/L"}, {"measurement": "Pvapor (vapor pressure)", "setting": "[4]", "value": "3.7 × 10^−5 mmHg"}]}
{"compound": "OCCCCCCCCCCCS", "note": "[11-Mercapto-1-undecanol]", "values": [{"measurement": "Water solubility", "setting": "[3]", "value": "about 10.3 mg/L"}]}
{"compound": "CCCCCCCCCCCCS", "note": "[1-dodecanethiol]", "values": [{"measurement": "inhibition properties in the tested water phase (VCI screening in bulk solution)", "setting": "[1]", "value": "had inhibition properties"}, {"measurement": "TLC rate (weight loss)", "setting": "[2]; 400 ppmV at the bottom", "value": 0.02, "unit": "mm/y"}, {"measurement": "Solubility limit", "setting": "[3]; [8]", "value": 0.18, "unit": "mg/L"}, {"measurement": "Solubility", "setting": "[3]", "value": 3, "unit": "ppmV"}, {"measurement": "Water solubility", "setting": "[3]", "value": "~0.225", "unit": "µg/mL"}, {"measurement": "Pvapor (vapor pressure)", "setting": "[4]", "value": 0.007, "unit": "mmHg"}, {"measurement": "Solubility", "setting": "[6]", "value": 0.22, "unit": "ppmV"}]}
{"compound": "CCCCCCCCCCCCCCCS", "note": "[C15]", "values": [{"measurement": "Calculated vapor pressure", "setting": "[4]", "value": 26.5, "unit": "mmHg"}]}
{"compound": "CCCCSCCCC", "note": "[Dibutyl sulfide, reference compound]", "values": [{"measurement": "BLC rate", "setting": "[1]; [7]", "value": "did not significantly change"}, {"measurement": "inhibition properties in the tested water phase (VCI screening in bulk solution)", "setting": "[1]", "value": "did not"}, {"measurement": "Solubility limit", "setting": "[3]; [8]", "value": 39.4, "unit": "mg/L"}]}
{"compound": "CCCCCCS", "note": "[1-hexanethiol]", "values": [{"measurement": "BLC rate", "setting": "[1]; [7]", "value": 0.01, "unit": "mm/y"}, {"measurement": "inhibition properties in the tested water phase (VCI screening in bulk solution)", "setting": "[1]", "value": "had inhibition properties"}, {"measurement": "surface of the X65 TLC specimen", "setting": "[2]", "value": "partially protected"}, {"measurement": "TLC rate (weight loss)", "setting": "[2]; 100 ppmV at the bottom", "value": 0.11, "unit": "mm/y"}, {"measurement": "TLC rate, times lower than the baseline test", "setting": "[2]; 100 ppmv and 400 ppmv in the bulk", "value": 10, "unit": "times"}, {"measurement": "TLC rate (weight loss)", "setting": "[2]; 400 ppmV at the bottom", "value": 0.13, "unit": "mm/y"}, {"measurement": "localized corrosion rate", "setting": "[2]; 400 ppmv in the bulk, profilometry after removing corrosion product, 2 day experiment", "value": 1.46, "unit": "mm/y"}, {"measurement": "depth of the deepest pit on the surface", "setting": "[2]; 400 ppmv in the bulk, profilometry, 2 day experiment", "value": "about 8 micrometers"}, {"measurement": "Solubility limit", "setting": "[3]; [8]", "value": 177.1, "unit": "mg/L"}, {"measurement": "Solubility", "setting": "[3]", "value": 1013.0, "unit": "ppmV"}, {"measurement": "Water solubility", "setting": "[3]", "value": "about 177.1 mg/L"}, {"measurement": "Pvapor (vapor pressure)", "setting": "[4]", "value": 4.5, "unit": "mmHg"}, {"measurement": "Solubility", "setting": "[6]", "value": "212.35 ppmV and 212.4 ppmV"}]}
